Values quoted from earlier work as cited in patent US20250090614A1, “COMPOSITIONS AND METHODS FOR IMPROVING LUNG FUNCTION” (priority 2023, published 2025).

Columns and labels:
senescent lung cells = details: mouse model, Palazzo et al. 2023; cited from earlier work
[1] = test system: Idiopathic pulmonary fibrosis (IPF); details: Dasatinib and Quercetin given together, pilot study, Justice et al. 2019; cited from earlier work

COC(=O)C1=C(C)NC(C)=C(C(=O)OC2CCCN(Cc3ccccc3)C2)C1c1cccc([N+](=O)[O-])c1 (stereo not drawn) [Benidipine]
lung emphysema (senescent lung cells): ameliorates | senescent lung cells (senescent lung cells): decrease

O=c1c(O)c(-c2ccc(O)c(O)c2)oc2cc(O)cc(O)c12 [Quercetin]
physical dysfunction in Idiopathic pulmonary fibrosis (IPF) [1]: showed promise
